The values below come from patent US8987217B2, “Modified saponins for the treatment of fungal infections” (The General Hospital Corporation, priority 2010, dated 2015).

Each structure is given as a SMILES string. In brackets after ≈: the same amount, converted by molar mass.

The subject of assay [1] is C. albicans strain DAY185. Put plainly: in vitro antifungal activity (MIC) in the co-inoculation assay, turbidity read visually. The assay is classed as cell-based. Particulars: co-inoculation assay, two-fold serial dilutions, C. albicans DAY185. The method, then: (§1) The procedure for the co-inoculation antifungal compound screen were conducted as previously described (Okoli et al., PLoS ONE, 4:e7025 (2009); Tampakakis et al., Nat Protocols, 3:1925-1931 (2008)), using the C. albicans strain DAY185 (Davis et al., Infect Immun, 68:5953-5959 (2000)) and the C. elegans glp-4;sek-1 double mutant.
The determination of the lowest concentration of the selected compounds showing in vitro antifungal activity was accomplished by following the steps detailed in the co-inoculation assay, using two-fold serial dilutions of the test compounds.

Another assay deals with C. albicans. Put plainly: C. elegans-C. albicans co-inoculation assay, nematode survival. The assay is classed as in vivo. The method, then: as §1
This assay allows simultaneous assessment of a compound's potential toxicity and the ability to promote the survival of the nematode in the presence of C. albicans, including modes of action not traditionally considered in antifungal assays such as impeding a fungal virulence factor or promoting host immune response. We performed a screen of 2,560 natural products representing a fraction of the Analyiticon Discovery compound collection (ac-discovery.com) housed at the Broad Institute of Harvard and MIT (Cambridge, Mass.). […] These natural products identified in the primary screen were retested and confirmed (FIG. 1; Table 1). […] Moreover, although the antifungal effects of some of these saponins have been reported (Sata et al., Biosci Biotechnol Biochem, 62:1904-1911 (1998); Ohtani et al., Phytochem, 33:83-86 (1993)), their efficacy against Candida spp. has not been studied.
After confirmation of these hits, dose response experiments were conducted to determine the concentration that provided maximum nematode survival. The compounds conferred a range of nematode survival from 27% (compound A6) to 93% (compounds A2, A7, A24, and A25), however, with the exception of A6, all compounds conferred a nematode survival over 65% (FIG. 1).

Another assay deals with C. albicans cells. Put plainly: photosensitizer uptake by fluorescence spectrofluorimetry. It counts as cell-based. Particulars: addition of A16 to RB, ce6, PEI-ce6. The method, then: In order to confirm that the increase in phototoxicity observed by combining the different PS with A16 is actually due to an increase of cellular uptake of the PS by the cells and to document that the antifungal efficacy of saponins against C. albicans is associated with increased permeability, the amount of dye within the cell was measured by fluorescence spectrofluorimetry.
Cell suspensions (10^8 cells/mL) were incubated in the dark as above using the same concentrations as for the PDI assays measured as μM PS equivalent (final concentration in incubation medium). Incubations were carried out in triplicate. Cell suspensions were centrifuged (12000 rpm, 1 min) and washed twice in 1 mL sterile PBS. The cell pellet was dissolved in 1.5 mL 0.1 M NaOH/1% SDS for 24 h to yield a homogenous solution. Uptake was determined by measurement of fluorescence in black 96-well flat-bottom plates (Costar) in a final volume of 200 μL using a Spectramax Gemini spectrofluorimeter (Molecular Devices) at 400 nmex/580-700 nmem for ce6, PEI-ce6 and 552 nmex/555-620 nmem for RB. Uptake values were obtained as previously described (Tegos et al., Antimicrob Agents Chemother, 50:196-203(2006)).
The cellular uptake of dye can be expressed as molecules per cell by correlation of the extracted PS concentration with the number of C. albicans cells present.

For a further assay, the system named is C. albicans biofilm. Put plainly: biofilm formation on silicone pads (dry mass). It counts as cell-based. Particulars: 10 μg/mL (below the MIC), compared with caspofungin. The method, then:
The minimal inhibitory concentration (MIC) was determined for strains DAY185, 98-145, 95-120 (White et al., Antimicrob Agents Chemother, 46:1704-1713 (2002)), and A15-10 (Garcia-Effron et al., Antimicrob Agents Chemother, 53:112-122 (2009)) spectrophotometrically using RPMI 1640 media (Mediatech, Inc.) following the standard CLSI microdilution protocol M27-A (National Committee for Clinical Laboratory Standards, Reference method for broth dilution susceptibility testing of yeasts. Tentative standard M27-A, Villanova, Pa. (1995)). Biofilm assays using identified compounds were conducted as previously described (Richard et al., Eukaryot Cell, 4:1493-1502 (2005)). The biofilm dry mass was determined by drying the silicone squares in a chemical hood, and weighing the resulting biofilm mass subtracting the previously weighed mass of the silicone square. […]
Caspofungin (Merck) served as a known antifungal compound control. In vitro hyphal inhibition was assessed by incubation of DAY185 in RPMI 1640 media at 37° C. […] The ability of the antifungal compound A16, at either 2 or 4 μg/mL, to induce osmotic stress was assessed using DAY185 grown in a 96 well microtiter plate containing RPMI 1640 media and NaCl, ranging in concentrations from 0-2 M in 0.25 M increments. The growth of the fungus was measured spectrophotometrically after 48 hours of growth at 35° C.

A further assay has as its system C. albicans DAY185. The experiment in a line: NaCl induced osmotic stress growth assay. It counts as cell-based. Particulars: 2 μg/mL A16; untreated control 1.25 M. The method, then: Caspofungin (Merck) served as a known antifungal compound control. In vitro hyphal inhibition was assessed by incubation of DAY185 in RPMI 1640 media at 37° C. After 48 hours the cultures were visually inspected for hyphal formation by microscopy. The ability of the antifungal compound A16, at either 2 or 4 μg/mL, to induce osmotic stress was assessed using DAY185 grown in a 96 well microtiter plate containing RPMI 1640 media and NaCl, ranging in concentrations from 0-2 M in 0.25 M increments. The growth of the fungus was measured spectrophotometrically after 48 hours of growth at 35° C.
The C. albicans cell wall and membrane are important for osmoregulation to maintain proper physiological conditions to carryout enzymatic reactions. Since saponins are able to disrupt the fungal cell membrane, external osmotic stress should also have detrimental effects on the fungal cell. C. albicans was grown in the presence of 2 μg/mL of compound A16 under various salt concentrations to assess the effect the saponin has on salt induced osmotic stress.

In assay [1], `CC1CC[C@@]2(OC1)O[C@H]1CC3C4C[C@@H](O)C5C[C@@H](O[C@@H]6O[C@H](CO)[C@H](O[C@@H]7O[C@H](CO)[C@@H](O)[C@H](O[C@@H]8OC[C@@H](O)[C@H](O)[C@H]8O)[C@H]7O[C@@H]7O[C@H](CO)[C@@H](O)[C@H](O)[C@H]7O)[C@H](O)[C@H]6O)[C@H](O)C[C@]5(C)C4CC[C@]3(C)[C@H]1[C@@H]2C` (stereo partly drawn) [A16, Aginoside] returned an MIC in vitro of 47.0 µg/mL (≈ 44 µM). The same molecule gave a maximum nematode survival in the assay with C. albicans (dose response, C. albicans-infected C. elegans) of 67%. In addition, in the assay on C. albicans (dose that resulted in 50% survival of C. albicans-infected nematodes), the EC50 in vivo was 47.0 µg/mL (≈ 44 µM). Further, the “effect on uptake of PS by the cells” value in the assay with C. albicans cells was “dramatically increased the uptake of PS”. Further, the biofilm formation entry in the assay with C. albicans biofilm was “able to inhibit biofilm formation”. The “NaCl concentration at which the fungus was unable to grow” value in the assay with C. albicans DAY185 turned out to be 0.5 M.
